Results reported in US20170044230A1 (USTAV ORGANICKE CHEMIE A BIOCHEMIE AV CR, V.V.I., priority 2014, published 2017).
Entries after “also recorded” stand apart in the source; their conditions may differ. Non-standard residues stand in square brackets, D forms with d. Residues, ends and D or L forms follow the SMILES beside them. *: point of attachment. 1Nal = N[C@@H](Cc1cccc2ccccc12)C(=O)O; Myristoyl = CCCCCCCCCCCCCC(=O)*; Dap = NC[C@H](N)C(=O)O; Sar = CNCC(=O)O

Tests used:
[1] = target: T1, human GHS-R1a receptor (Homo sapiens, UniProt Q92847); experiment: Competitive binding studies (displacement of 125I-ghrelin); conditions: relative to ghrelin = 100
T1 construct: purchased Multispan, Hayward, Calif., USA; host or cells: HEK293T cells, isolated plasma membranes
T1 sequence (Q92847 whole entry): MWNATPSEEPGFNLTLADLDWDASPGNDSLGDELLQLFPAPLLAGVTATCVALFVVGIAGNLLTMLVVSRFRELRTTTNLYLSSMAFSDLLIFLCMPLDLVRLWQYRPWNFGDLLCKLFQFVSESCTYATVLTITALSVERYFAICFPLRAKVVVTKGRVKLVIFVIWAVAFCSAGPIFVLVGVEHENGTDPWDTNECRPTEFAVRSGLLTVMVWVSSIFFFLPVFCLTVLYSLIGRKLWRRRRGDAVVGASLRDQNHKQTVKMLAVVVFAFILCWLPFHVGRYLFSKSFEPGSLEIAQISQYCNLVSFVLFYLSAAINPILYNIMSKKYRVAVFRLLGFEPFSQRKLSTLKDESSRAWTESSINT
Method: Isolated plasma membranes from the HEK293T cells with transfected human GHS-R1a receptor (Multispan, Hayward, Calif., USA) were used. […] Experiments were carried out in duplicates at least three times. Competitive binding curves were plotted using GraphPad Prism Software (San Diego, Calif., USA) while comparing the best fit for single binding sites models.

[2] = tested on: fed C57BL/6 male mice; experiment: Effect of SC administered ghrelin analogs on food intake; format: in vivo; conditions: for maximal effect at 5 mg/kg on food intake: SC 5 mg/kg, evaluated 480 min after administration; for ED50 (250 min after injection), effect on food intake: SC
Method in brief: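 Food-withdrawn male C57BL/6 mice, dosed SC, received preweighed chow 15 min after injection; intake recorded every 30 min for 8-10 hours, ≥5 mice/group. ED50 = dose giving half-maximal effect at 250 min; maximal effect taken at 480 min after 5 mg/kg.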

[3] = Pharmacokinetics in vivo after SC administration to mice; conditions: SC 5 mg/kg
Method: Mice were housed at a temperature 22±2° C. under a daily cycle of 12/12 h light/dark (light from 6:00) with free access to water and a standard chow diet St-1 (Mlýn Kocanda, Praha, Czech Republic).
4, 6, 14 and 18 at a dose of 5 mg/kg of body weight (0.2 ml/mouse, n=4). Blood was collected from tails before injection and 0.5, 1, 2, 4, 8, 16 and 24 h after injection. Plasma was separated and stored at −20° C.

[4] = tested on: 4-5-week old male C57BL/6 mice; experiment: Growth hormone (GH) release after SC administration to young mice; format: in vivo; conditions: 10 min after SC 5 mg/kg
Method: 4 and 14 at a dose of 5 mg/kg of body weight (0.2 ml/mouse). 10 min after the injection, blood was collected, plasma was prepared and stored at −20° C. until use. GH levels in the plasma samples were determined by Rat/Mouse Growth Hormone ELISA kit (Merck-Millipore, St. Charles, Mo., USA). Ghrelin analogs no.

[5] = tested on: mouse model of lipopolysaccharide-induced cachexia; experiment: Mouse model of lipopolysaccharide-induced cachexia (LPS model); format: in vivo, mice
Method: Male C57BL/6 mice (Charles River, Germany) were housed at a temperature of 22±2° C. under a daily cycle of 12/12 h light/dark (light from 6:00) with free access to water and a standard chow diet St-1 (Mlýn Kocanda, Praha, Czech Republic). One week before the experiment, the mice were placed into separated cages and habituated to an automatic system for food intake monitoring (Developmental workshop IOCB, Prague, Czech Republic). Animals were randomized into two groups, LPS group and control group. At 17:00, the LPS group was injected intraperitoneally (IP) with 100 μg/kg of body weight LPS (Escherichia coli 055:B5 serotype, Sigma) in a volume of 0.2 ml saline. The control group received an IP injection with an equal volume of saline. Food intake was monitored automatically in 10-min intervals. […] 14 (n=4-5 mice per group). Food intake was monitored for another 10 hours.
At the end of the experiment, mice were sacrificed by decapitation, blood was collected, plasma was prepared and stored at −20° C. Hypothalamus was dissected, frozen on dry ice and stored at −80° C., musculus gastrocnemius was dissected, flash-frozen in liquid nitrogen and stored at -80° C. C-reactive protein levels and pro-inflammatory/anti-inflammatory cytokine levels in blood plasma were determined using C-Reactive Protein Mouse ELISA (Biovendor, Bmo, Czech Republic) and Milliplex MAP Rat Cytokine/Chemokine Magnetic Bead Panel (Merck-Millipore, St. Charles, Mo., USA), respectively. Samples of hypothalamus and muscle were homogenized, total RNA was extracted and RNA concentration was determined as previously described (Holubova et al., 2014). Determination of the mRNA expression of genes of interest (MuRFI and MAFbx in muscle, NPY and AgRP in hypothalamus) was performed using an ABI PRISM 7500 instrument (Applied Biosystems, Foster City, Calif., USA). The expression of GAPDH or GUSH was used to compensate for variations in input RNA amounts and the efficiency of reverse transcription, and the modified formula 2-ΔCt was used to calculate the relative gene expression.

[6] = single SC 5 mg/kg after LPS, 5 mg/kg
[7] = single SC administration, LPS model

Row | SMILES | % of ghrelin binding [1] [%] | maximal effect at 5 mg/kg on food intake [2] | orexigenic effect (cumulative food intake), dose dependence ([2]; SC 0.2, 1, 5 and 10 mg/kg, fed mice) | ED50 (250 min after injection), effect on food intake ([2]; fed mice) [mg/kg] | stability in vivo compared with ghrelin or Dpr^3ghrelin [3] | GH levels in plasma [4] | half-life ([3]; male, C57BL/6, mouse, plasma) [h] | levels of C-reactive protein ([5]; single SC 5 mg/kg after LPS) | levels of pro-inflammatory cytokine IL-2 ([5]; single SC 5 mg/kg after LPS) | food intake ([5]; single SC 5 mg/kg after LPS, monitored 10 hours, 5 mg/kg) | expression of mRNA for orexigenic neuropeptides NPY and AgRP in hypothalamus [5, 6] | mRNA expression for markers of muscle degradation MuRF-1 and MAFbx [5, 6] | cachectic state [5, 7] | plasmatic levels of pro-inflammatory cytokines [5, 7]
1 | CCCCCCCCCCCCCC(=O)NC[C@H](NC(=O)[C@H](CO)NC(=O)CNC)C(=O)N[C@@H](Cc1cccc2ccccc12)C(=O)N[C@@H](CC(C)C)C(=O)N[C@@H](CO)C(=O)N1CCC[C@H]1C(=O)N[C@@H](CCC(=O)O)C(=O)N[C@@H](Cc1c[nH]cn1)C(=O)N[C@@H](CCC(N)=O)C(=O)N[C@@H](CCCCN)C(=O)N[C@@H](C)C(=O)N[C@@H](CCC(N)=O)C(=O)N[C@@H](CCC(N)=O)C(=O)N[C@@H](CCCNC(=N)N)C(=O)N[C@@H](CCCCN)C(=O)N[C@@H](CCC(=O)O)C(=O)N[C@@H](CO)C(=O)N[C@@H](CCCCN)C(=O)N[C@@H](CCCCN)C(=O)N1CCC[C@H]1C(=O)N1CCC[C@H]1C(=O)N[C@@H](C)C(=O)N[C@@H](CCCCN)C(=O)N[C@@H](CC(C)C)C(=O)N[C@@H](CCC(N)=O)C(=O)N1CCC[C@H]1C(=O)N[C@@H](CCCNC(=N)N)C(=O)O [Analog 4] (H-[Sar]S[Dap](Myristoyl)[1Nal]LSPEHQKAQQRKESKKPPAKLQPR-OH; N-terminus and C-terminus assumed) | 57 | 212.8 % of Dpr^3ghr | dose-dependent orexigenic effect | 6.02 | significantly more stable than ghrelin or Dpr^3ghrelin | did not alter the GH levels | – | – | – | – | – | – | – | –
2 | CCCCCCCCCCCCCC(=O)NC[C@H](NC(=O)[C@H](CO)NC(=O)CNC)C(=O)N[C@@H](Cc1ccc(Cl)c(Cl)c1)C(=O)N[C@@H](CC(C)C)C(=O)N[C@@H](CO)C(=O)N1CCC[C@H]1C(=O)N[C@@H](CCC(=O)O)C(=O)N[C@@H](Cc1c[nH]cn1)C(=O)N[C@@H](CCC(N)=O)C(=O)N[C@@H](CCCCN)C(=O)N[C@@H](C)C(=O)N[C@@H](CCC(N)=O)C(=O)N[C@@H](CCC(N)=O)C(=O)N[C@@H](CCCNC(=N)N)C(=O)N[C@@H](CCCCN)C(=O)N[C@@H](CCC(=O)O)C(=O)N[C@@H](CO)C(=O)N[C@@H](CCCCN)C(=O)N[C@@H](CCCCN)C(=O)N1CCC[C@H]1C(=O)N1CCC[C@H]1C(=O)N[C@@H](C)C(=O)N[C@@H](CCCCN)C(=O)N[C@@H](CC(C)C)C(=O)N[C@@H](CCC(N)=O)C(=O)N1CCC[C@H]1C(=O)N[C@@H](CCCNC(=N)N)C(=O)O [Analog 14] | 7 | 235.5 % of Dpr^3ghr | – | 0.65 | significantly more stable than ghrelin or Dpr^3ghrelin | did not alter the GH levels | 5 | tended to normalize levels of C-reactive protein | normalized levels of pro-inflammatory cytokine IL-2 | significant increase in food intake; also recorded: increased food intake | significantly increased expression of mRNA; also recorded: increased expression of orexigenic neuropeptides in the hypothalamus | tended to decrease mRNA expression; also recorded: tended to decrease expression of markers of muscle degradation | improved the cachectic state | reduced plasmatic levels of pro-inflammatory cytokines
